Experimental data: PMC9574860, “Chemical Toolkit for PARK7: Potent, Selective, and High-Throughput” (Journal of Medicinal Chemistry, 2022)
Like-named read-outs stand apart in the source and are kept apart here.

Target: T1, PARK7 (Homo sapiens, UniProt Q99497)
T1 sequence (Q99497 1-189): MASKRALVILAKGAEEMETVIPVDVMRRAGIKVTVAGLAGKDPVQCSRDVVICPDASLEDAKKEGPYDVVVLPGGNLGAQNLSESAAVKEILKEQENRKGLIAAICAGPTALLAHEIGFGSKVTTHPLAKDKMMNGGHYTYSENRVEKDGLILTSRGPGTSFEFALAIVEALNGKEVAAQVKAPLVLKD
Assay: FP assay with Rhodamine110 probe JYQ-107 (IC50 and hit validation)
Type: binding
Parameters: GST (N, cleaved yes); made in house; host or cells: E. coli BL21(DE3) Rosetta2
Settings: for inhibition at 12.5 µM: read-out: FP assay %Inhibiton (12.5 µM); for inhibition at 37.5 µM: read-out: FP assay %Inhibiton (37.5 µM); for inhibition at 100 µM: read-out: FP assay %Inhibiton (100 µM)
Method: The assay was performed using the conditions as described above with a reaction volume of 20 μL per well in triplicate. Stock solutions of JYQ-88 of 1 and 0.1 mM were prepared. […] The FP signal was monitored with a BMG Labtech PHERAstar plate reader (λex/em 480/520 nm) for 2 h.
The validation was performed using the conditions as described above with a reaction volume of 20 μL per well in triplicate. […] The FP signal was monitored with a BMG Labtech PHERAstar plate reader (λex/em 480/520 nm) for 2 h. The relative loss of FP signal compared with reference controls was used to calculate the remaining enzyme activity. Inhibition percentage of these 40 compounds was plotted as a heatmap using GraphPad Prism 9.0.1 software. Color gradients indicate inhibition percentage, no inhibiton (white) and full inhibition (blue).

[1] = 12.5 µM compound, PARK7 0.2 μM, 1 h preincubation, JYQ-107 20 nM
[2] = 37.5 µM compound, PARK7 0.2 μM, 1 h preincubation, JYQ-107 20 nM
[3] = 100 µM compound, PARK7 0.2 μM, 1 h preincubation, JYQ-107 20 nM

| Structure (SMILES) | inhibition at 12.5 µM [1] [%] | inhibition at 37.5 µM [2] [%] | inhibition at 100 µM [3] [%] | other results |
| --- | --- | --- | --- | --- |
| O=C(CCl)c1ccccn1 [Z1954803958] | 0 | 0 | 23.5 |  |
| CC(c1ccccc1)N(C)C(=O)CCl (stereo not drawn) [Z86023354] | 88.4 | 89.7 | 100 |  |
| O=C(NCCCS(=O)(=O)F)c1cccs1 [Z3267389796] |  |  |  | FP assay %Inhibiton (12.5 µM) [1]: 83.1%; FP assay %Inhibiton (37.5 µM) [2]: 80.1%; FP assay %Inhibiton (100 µM) [3]: 100.0% |
| O=C(CCl)c1cscn1 [Z2491497305] | 4.5 | 7.6 | 51.6 |  |
| NC(=O)c1csc(C(=O)CCl)c1 [Z802671642] | 23.8 | 25.8 | 68 |  |
| COc1ccc(NS(=O)(=O)c2ccc(S(=O)(=O)F)cc2)cn1 [Z1672273218] |  |  |  | inhibition at 12.5 µM: 79.5%; inhibition at 37.5 µM: 83.8%; inhibition at 100 µM: 100% |
| COC(=O)Nc1ccc(S(=O)(=O)F)cc1[N+](=O)[O-] [Z1741956298] |  |  |  | FP assay %Inhibiton (12.5 µM) [1]: 72.6%; FP assay %Inhibiton (37.5 µM) [2]: 75.8%; FP assay %Inhibiton (100 µM) [3]: 100.0% |
| CC(c1ccc(Cl)cc1)N(C)C(=O)CCl (stereo not drawn) [Z1562123076] | 79.5 | 81.3 | 100 |  |
| COc1ccccc1CN(C)C(=O)CCl [Z57051055] | 68.3 | 66.1 | 100 |  |
| O=[N+]([O-])c1ccc(C(F)(F)F)c(S(=O)(=O)F)c1 [Z3396482545] |  |  |  | FP assay %Inhibiton (12.5 µM) [1]: 36.7%; FP assay %Inhibiton (37.5 µM) [2]: 36.2%; FP assay %Inhibiton (100 µM) [3]: 92.4% |
| O=C1CCC(CC(=O)Nc2cccc(S(=O)(=O)F)c2)CC1 [Z1832812448] |  |  |  | inhibition at 12.5 µM: 0%; inhibition at 37.5 µM: 0%; inhibition at 100 µM: 0% |
| CCc1ccc(NC(=O)CCl)cc1 [Z56886400] | 90.8 | 95.6 | 100 |  |
| O=C(Nc1cccc(S(=O)(=O)F)c1)C1CCCC1 [Z1713569513] |  |  |  | FP assay %Inhibiton (12.5 µM) [1]: 67.6%; FP assay %Inhibiton (37.5 µM) [2]: 76.9%; FP assay %Inhibiton (100 µM) [3]: 100.0% |
| O=C(CCl)Nc1ccc(SC(F)F)cc1 [Z56896308] | 62.4 | 65.9 | 100 |  |
| Cn1c(=O)ccn(CC(=O)Nc2cccc(S(=O)(=O)F)c2)c1=O [Z1713568698] |  |  |  | inhibition at 12.5 µM: 80.3%; inhibition at 37.5 µM: 78.2%; inhibition at 100 µM: 100% |
| O=C(CCl)c1ccc(F)c(Cl)c1 [Z2492395560] | 20.7 | 37.4 | 88.1 |  |
| O=C(CCl)Nc1ccc(N2CCCCCC2)cc1 [Z190662892] | 84.2 | 85.1 | 100 |  |
| Cc1cc(C(=O)CCl)c(C)[nH]1 [Z235333089] | 11.4 | 16.2 | 54.4 |  |
